In patent publication US20260217701A1, “SELECTIVE BET INHIBITORS AND USES THEREOF” (Tay Therapeutics Limited, priority 2022, published 2026):
Several values for one entry are separate records, joined by “and”; a condition that tells them apart may be missing. Equal entries are not always repeated.

Tested on: collagen-induced arthritis
Experiment: Collagen-induced arthritis (CIA) model: clinical scores and paw volume; on Animal paw volume percent change (%): reference of the scale not given here; on Average animal paw volume percent change (%): reference of the scale not given here
Assay type: in vivo, Lewis rats
Settings: for Overall Clinical Score: individual animals 1-8; for Animal paw volume percent change (%): individual animals
[1] = Day 12, CIA + Compound A 10 mg/kg
[2] = Day 13, L paw, group 5 CIA + Compound A 1 mg/kg
[3] = Day 13, L paw, group 6 CIA + Compound A 3 mg/kg
[4] = Day 13, L paw, group 7 CIA + Compound A 10 mg/kg
[5] = Day 13, R paw, group 5 CIA + Compound A 1 mg/kg
[6] = Day 13, R paw, group 6 CIA + Compound A 3 mg/kg
[7] = Day 13, R paw, group 7 CIA + Compound A 10 mg/kg
[8] = Day 13, CIA + Compound A 1 mg/kg
[9] = Day 13, CIA + Compound A 3 mg/kg
[10] = Day 13, CIA + Compound A 10 mg/kg
[11] = Day 14, L paw, group 5 CIA + Compound A 1 mg/kg
[12] = Day 14, L paw, group 6 CIA + Compound A 3 mg/kg
[13] = Day 14, L paw, group 7 CIA + Compound A 10 mg/kg
[14] = Day 14, R paw, group 5 CIA + Compound A 1 mg/kg
[15] = Day 14, R paw, group 6 CIA + Compound A 3 mg/kg
[16] = Day 14, R paw, group 7 CIA + Compound A 10 mg/kg
[17] = Day 14, CIA + Compound A 1 mg/kg
[18] = Day 14, CIA + Compound A 3 mg/kg
[19] = Day 14, CIA + Compound A 10 mg/kg
[20] = Day 15, L paw, group 5 CIA + Compound A 1 mg/kg
[21] = Day 15, L paw, group 6 CIA + Compound A 3 mg/kg
[22] = Day 15, L paw, group 7 CIA + Compound A 10 mg/kg
[23] = Day 15, R paw, group 5 CIA + Compound A 1 mg/kg
[24] = Day 15, R paw, group 6 CIA + Compound A 3 mg/kg
[25] = Day 15, R paw, group 7 CIA + Compound A 10 mg/kg
[26] = Day 15, CIA + Compound A 1 mg/kg
[27] = Day 15, CIA + Compound A 3 mg/kg

Cn1cc(-c2ccccc2)c(-c2cn(C)c(=O)c3[nH]c(-c4cnn(C(F)(F)F)c4)cc23)cc1=O [Compound A, 6-methyl-4-(1-methyl-2-oxo-5-phenyl-1,2-dihydropyridin-4-yl)-2-(1-(trifluoromethyl)-1H-pyrazol-4-yl)-1,6-dihydro-7H-pyrrolo[2,3-c]pyridin-7-one]
Average detailed clinical score, left forelimb [1]: 0.00 | Average detailed clinical score, left hind limb [1]: 0.00 | Average detailed clinical score, right forelimb [1]: 0.00 | Average detailed clinical score, right hind limb [1]: 0.13 | Average detailed clinical score, score [1]: 0.13 | Average overall clinical score [1]: 0 | Average animal paw volume [2]: 1.42 mL | Average animal paw volume percent change (%) [2]: 7.45% | Average animal paw volume [3]: 1.40 mL | Average animal paw volume percent change (%) [3]: 6.55% | Average animal paw volume [4]: 1.41 mL | Average animal paw volume percent change (%) [4]: 7.21% | Average animal paw volume [5]: 1.43 mL | Average animal paw volume percent change (%) [5]: 7.62% | Average animal paw volume [6]: 1.40 mL | Average animal paw volume percent change (%) [6]: 6.26% | Average animal paw volume [7]: 1.41 mL | Average animal paw volume percent change (%) [7]: 7.41% | Average detailed clinical score, left forelimb [8]: 0 | Average detailed clinical score, left hind limb [8]: 0 | Average detailed clinical score, right forelimb [8]: 0 | Average detailed clinical score, right hind limb [8]: 0 | Average detailed clinical score, score [8]: 0 | Average overall clinical score [8]: 0 | Overall Clinical Score (Day 13, CIA + Compound A 1 mg/kg, 1 mg/kg): 0 (6×) and 2 and 1 | Average detailed clinical score, left forelimb [9]: 0 | Average detailed clinical score, left hind limb [9]: 0 | Average detailed clinical score, right forelimb [9]: 0 | Average detailed clinical score, right hind limb [9]: 0 | Average detailed clinical score, score [9]: 0 | Average overall clinical score [9]: 0 | Overall Clinical Score (Day 13, CIA + Compound A 3 mg/kg, 3 mg/kg): 0 | Average detailed clinical score, left forelimb [10]: 0 | Average detailed clinical score, left hind limb [10]: 0.125 | Average detailed clinical score, right forelimb [10]: 0.125 | Average detailed clinical score, right hind limb [10]: 0.25 | Average detailed clinical score, score [10]: 0.5 | Average overall clinical score [10]: 1 | Average animal paw volume [11]: 1.53 mL | Average animal paw volume percent change (%) [11]: 15.36% | Average animal paw volume [12]: 1.44 mL | Average animal paw volume percent change (%) [12]: 9.64% | Average animal paw volume [13]: 1.44 mL | Average animal paw volume percent change (%) [13]: 9.68% | Average animal paw volume [14]: 1.49 mL | Average animal paw volume percent change (%) [14]: 11.73% | Average animal paw volume [15]: 1.45 mL | Average animal paw volume percent change (%) [15]: 10.16% | Average animal paw volume [16]: 1.44 mL | Average animal paw volume percent change (%) [16]: 9.90% | Average detailed clinical score, left forelimb [17]: 0 | Average detailed clinical score, left hind limb [17]: 1 | Average detailed clinical score, right forelimb [17]: 0 | Average detailed clinical score, right hind limb [17]: 0 | Average detailed clinical score, score [17]: 1 | Average overall clinical score [17]: 1 | Overall Clinical Score (Day 14, CIA + Compound A 1 mg/kg, 1 mg/kg): 0 (3×) and 2 (2×) and 1 (3×) | Average detailed clinical score, left forelimb [18]: 0 | Average detailed clinical score, left hind limb [18]: 0 | Average detailed clinical score, right forelimb [18]: 0 | Average detailed clinical score, right hind limb [18]: 0 | Average detailed clinical score, score [18]: 1 | Average overall clinical score [18]: 1 | Overall Clinical Score (Day 14, CIA + Compound A 3 mg/kg, 3 mg/kg): 0 | Average detailed clinical score, left forelimb [19]: 0 | Average detailed clinical score, left hind limb [19]: 0.25 | Average detailed clinical score, right forelimb [19]: 0 | Average detailed clinical score, right hind limb [19]: 0.375 | Average detailed clinical score, score [19]: 0.625 | Average overall clinical score [19]: 1 | Average animal paw volume [20]: 1.64 mL | Average animal paw volume percent change (%) [20]: 24.11% | Average animal paw volume [21]: 1.54 mL | Average animal paw volume percent change (%) [21]: 16.70% | Average animal paw volume [22]: 1.54 mL | Average animal paw volume percent change (%) [22]: 16.95% | Animal paw volume percent change (%) (Day 15, L paw, group 5 CIA + Compound A 1 mg/kg, 1 mg/kg): 10.73% and 42.25% and 30.26% and 23.40% and 10.86% and 24.91% and 44.53% | Animal paw volume percent change (%) (Day 15, L paw, group 6 CIA + Compound A 3 mg/kg, 3 mg/kg): 12.93% and 23.35% and 12.17% and 8.79% and 18.01% and 25.47% | Average animal paw volume [23]: 1.58 mL | Average animal paw volume percent change (%) [23]: 19.02% | Average animal paw volume [24]: 1.51 mL | Average animal paw volume percent change (%) [24]: 14.88% | Average animal paw volume [25]: 1.50 mL | Average animal paw volume percent change (%) [25]: 14.23% | Animal paw volume percent change (%) (Day 15, R paw, group 5 CIA + Compound A 1 mg/kg, 1 mg/kg): 8.43% and 39.77% and 13.09% and 24.15% and 10.33% and 30.42% and 20.00% | Animal paw volume percent change (%) (Day 15, R paw, group 6 CIA + Compound A 3 mg/kg, 3 mg/kg): 4.53% and 9.73% and 9.81% and 5.20% and 34.75% and 17.23% | Average detailed clinical score, left forelimb [26]: 0 | Average detailed clinical score, left hind limb [26]: 1 | Average detailed clinical score, right forelimb [26]: 0 | Average detailed clinical score, right hind limb [26]: 1 | Average detailed clinical score, score [26]: 2 | Average overall clinical score [26]: 2 | Overall Clinical Score (Day 15, CIA + Compound A 1 mg/kg, 1 mg/kg): 0 (3×) and 4 and 3 (3×) and 2 | Average detailed clinical score, left forelimb [27]: 0 | Average detailed clinical score, left hind limb [27]: 1 | Average detailed clinical score, right forelimb [27]: 0 | Average detailed clinical score, right hind limb [27]: 1
